# How the values were obtained:
# [1] = tested on: P. aeruginosa MUW 700 AmpC(+); test: MIC of tested agent alone, microdilution; assay type: cell-based; settings: Pseudomonas aeruginosa; read-out: MIC of agent alone
# Description: (§1) To examine the ability of tested agents to inhibit various carbapenemases and AmpC-enzymes, their synergy with antibiotics against β-lactamase-producing strains was assessed by checkerboard microdilution assay, with slight modification. Checkerboards were prepared in microtiter plates, with seven two-fold dilutions of β-lactams (1–64 mg/L) in the rows and three two-fold dilutions of tested agents and PBA (4–16 mg/L) in the columns. Tested agents’ concentrations were limited to the concentrations at which the newest commercially available BLIs (vaborbactam, relebactam, and avibactam) are used in susceptibility testing. Plates were inoculated and incubated as in the MIC microdilution assay. Parallel, MICs of tested agents and PBA alone were determined by the microdilution assay. Following the incubation, antibiotic MICs in the presence of each agent’s concentration were determined. Moreover, for the first well without growth found in each checkerboard row and column along the growth/non-growth interface, the fractional inhibitory concentration index (FICI) was calculated using the formula below:FICI = [(MIC of antibiotic in combination)/(MIC of antibiotic alone)] + [(MIC of the tested agent in combination)/(MIC of tested agent alone)].
# [2] = tested on: K. pneumoniae ATCC BAA-1705 KPC-2(+); test: MIC of tested agent alone, microdilution; assay type: cell-based; settings: Klebsiella pneumoniae, ATCCBAA1705; read-out: MIC of agent alone
# Description: as §1
# [3] = tested on: K. pneumoniae 81 KPC-3(+); test: MIC of tested agent alone, microdilution; assay type: cell-based; settings: Klebsiella pneumoniae; read-out: MIC of agent alone
# Description: as §1
# E. coli 76 KPC-2(+) = test: MIC of tested agent alone, microdilution; assay type: cell-based; settings: Escherichia coli; read-out: MIC of agent alone
# Description: as §1
# [4] = tested on: K. pneumoniae 83 KPC-3(+), CTX-M-3(+); test: MIC of tested agent alone, microdilution; assay type: cell-based; settings: Klebsiella pneumoniae; read-out: MIC of agent alone
# Description: as §1
# E. coli 77 CMY-2(+) = test: MIC of tested agent alone, microdilution; assay type: cell-based; settings: Escherichia coli; read-out: MIC of agent alone
# Description: as §1
# S. cerevisiae ATCC 9763 = test: antifungal activity (disc-diffusion, MIC, MFC); assay type: cell-based; settings: Saccharomyces cerevisiae, ATCC9763; fluconazole by Etest
# Description: (§2) Direct antimicrobial activity against Gram-negative and Gram-positive bacterial strains, as well as against yeast, was examined as previously described by the disc-diffusion test, the MIC determination assay, the MBC (for bacteria), and the MFC (for yeasts) determination tests. All the above-mentioned tests were performed according to EUCAST [71, 72] and CLSI [73, 74, 75, 76, 77] recommendations. The following reference agents were used: nitrofurantoin (for Gram-negative rods), linezolid (for Gram-positive bacteria), and fluconazole (in the case of fungi). The new aromatic diboronic acids were dissolved in DMSO (Sigma, St. Louis, MO, USA). In the disc-diffusion test, the concentration of new agents was 0.4 mg per disc.
# C. albicans ATCC 90028 = test: antifungal activity (disc-diffusion, MIC, MFC); assay type: cell-based; settings: Candida albicans, ATCC90028; fluconazole by Etest
# Description: as §2
# C. tropicalis ATCC 750 = test: antifungal activity (disc-diffusion, MIC, MFC); assay type: cell-based; settings: Candida tropicalis, ATCC750; fluconazole by Etest
# Description: as §2
# C. tropicalis IBA 171 = test: antifungal activity (disc-diffusion, MIC, MFC); assay type: cell-based; settings: Candida tropicalis, IBA171; fluconazole by Etest
# Description: as §2
# [5] = tested on: C. guilliermondii IBA 155; test: antifungal activity (disc-diffusion, MIC, MFC); assay type: cell-based, Candida guilliermondii; settings: Meyerozyma guilliermondii, IBA155; fluconazole by Etest
# Description: as §2
# [6] = MTT-based viability assay; assay type: cell-based; settings: human, MRC-5 human fibroblasts, 72 h, read-out: Viability of MRC-5 cells (% of viable cells ± SD)
# Description: MRC-5 human fibroblasts (ECACC) were cultured in MEME, Minimum Essential Medium Eagle (Merck) supplemented with 10% fetal bovine serum (Merck), 2 mM l-glutamine, antibiotics (100 U/mL penicillin, 100 μg/mL streptomycin, Merck) and 1% non-essential amino acids (Merck). Cells were grown in 75 cm^2 cell culture flasks (Sarstedt) in a humidified atmosphere of CO2/air (5/95%) at 37 °C. MTT-based viability assay was conducted as described previously. Optical densities were measured at 570 nm using a BioTek microplate reader. All measurements were carried out in three replicates, and the results were expressed as a percent of viable cells versus control cells.
# [7] = tested on: P. aeruginosa MUW 700 cAmpC-positive; test: combination disc test CDT-AmpC; assay type: cell-based; settings: Pseudomonas aeruginosa; agent 0.3 mg per disc; read-out: Diameter of inhibition zone, CAZ-30 disc with agent
# AmpC producers = test: microdilution with ceftazidime; assay type: cell-based
# Description: as §1
# (§3) For calculations, all off-scale MICs were converted to the next-highest doubling concentration. Subsequently, both the average and the lowest FICI were interpreted. The interpretation was as follows: FICI ≤ 0.5, synergy; 0.5 < FICI ≤ 4, indifference and FICI > 4, antagonism. Primarily, examined combinations consisted of meropenem (Pol-Aura, Morag, Poland) plus tested agents against carbapenemases-producing strains and ceftazidime (Pol-Aura, Morag, Poland) plus tested agents against AmpC-producing strains. For agents that reduced meropenem MIC at least 4-fold for at least two tested strains, similar assays were performed with imipenem (Pol-Aura, Morag, Poland) and ertapenem (Pol-Aura, Morag, Poland).
# [8] = tested on: C. parapsilosis ATCC 22019; test: antifungal activity (disc-diffusion, MIC, MFC); assay type: cell-based, Candida parapsilosis; settings: Lodderomyces parapsilosis, ATCC22019; fluconazole by Etest
# Description: as §2
# C. krusei ATCC 6258 = test: antifungal activity (disc-diffusion, MIC, MFC); assay type: cell-based, Candida krusei; settings: Pichia kudriavzevii, ATCC6258; fluconazole by Etest
# Description: as §2
# E. faecium ATCC 6057 = test: direct antimicrobial activity (disc-diffusion, MIC, MBC); assay type: cell-based; settings: Enterococcus faecium, ATCC6057
# Description: as §2
# E. faecalis ATCC 29212 = test: as above; assay type: cell-based; settings: Enterococcus faecalis, ATCC29212
# Description: as §2
# S. aureus ATCC 6538P = test: as above; assay type: cell-based; settings: Staphylococcus aureus, ATCC6538P
# Description: as §2
# [9] = tested on: S. epidermidis ATCC 12228; test: as above; assay type: cell-based; settings: Staphylococcus epidermidis, ATCC12228
# Description: as §2
# [10] = tested on: S. aureus ATCC 43300 MRSA; test: as above; assay type: cell-based; settings: Staphylococcus aureus
# Description: as §2
# [11] = tested on: E. coli 77 CMY-2-positive; test: combination disc test CDT-AmpC; assay type: cell-based; settings: Escherichia coli; agent 0.3 mg per disc; read-out: Diameter of inhibition zone, CAZ-30 disc with agent
# [12] = tested on: P. aeruginosa MUW 700 cAmpC-positive; test: checkerboard microdilution, antibiotic plus tested agent; assay type: cell-based, Pseudomonas aeruginosa
# Description: as §1, §3
# [13] = tested on: K. pneumoniae ATCC 700603 ESBL-positive; test: combination disc test CDT-ESBL; assay type: cell-based; settings: Klebsiella pneumoniae, ATCC700603; agent 0.3 mg per disc; read-out: Diameter of inhibition zone, CAZ-30 disc with agent
# [14] = tested on: K. pneumoniae ATCC BAA 1705 KPC-2-positive; test: combination disc test CDT-KPC; assay type: cell-based; settings: Klebsiella pneumoniae, BAA1705; agent 0.3 mg per disc; read-out: Diameter of inhibition zone, MEM-10 disc with agent
# [15] = tested on: E. coli 77 CMY-2-positive; test: checkerboard microdilution, antibiotic plus tested agent; assay type: cell-based, Escherichia coli
# Description: as §1, §3
# B. subtilis ATCC 6633 = test: direct antimicrobial activity (disc-diffusion); assay type: cell-based; settings: Bacillus subtilis, ATCC6633; 0.4 mg per disc, 9 mm disc (linezolid 0.03 mg, 6 mm disc); - no zone; read-out: Diameter of inhibition zone
# Description: as §2
# [16] = tested on: K. pneumoniae 83 KPC-3-positive, CTX-M-3-positive; test: checkerboard microdilution, antibiotic plus tested agent; assay type: cell-based, Klebsiella pneumoniae; settings: Klebsiella pneumoniae; read-out: MIC of ertapenem alone
# Description: as §1, §3
# [17] = tested on: K. pneumoniae ATCC BAA-1705 KPC-2-positive; test: as above; assay type: cell-based, Klebsiella pneumoniae; settings: Klebsiella pneumoniae, ATCCBAA1705; read-out: MIC of ertapenem alone
# Description: as §1, §3
# [18] = tested on: K. pneumoniae 81 KPC-3-positive; test: as above; assay type: cell-based, Klebsiella pneumoniae; settings: Klebsiella pneumoniae; read-out: MIC of ertapenem alone
# Description: as §1, §3
# KPC producers = test: microdilution with carbapenems; assay type: cell-based; settings: strains used in this study
# Description: as §1, §3
# [19] = tested on: E. coli 76 KPC-2-positive; test: checkerboard microdilution, antibiotic plus tested agent; assay type: cell-based, Escherichia coli; settings: Escherichia coli; read-out: MIC of ertapenem alone
# Description: as §1, §3
# [20] = 0.4 mg per disc, 9 mm disc (linezolid 0.03 mg, 6 mm disc), - no zone, read-out: Diameter of inhibition zone
Structure (SMILES),MIC [1] [µg/mL],MIC [2] [µg/mL],MIC [3] [µg/mL],MIC (E. coli 76 KPC-2(+)) [µg/mL],MIC [4] [µg/mL],MIC (E. coli 77 CMY-2(+)) [µg/mL],MIC (S. cerevisiae ATCC 9763) [µg/mL],MIC (C. albicans ATCC 90028) [µg/mL],MIC (C. tropicalis ATCC 750) [µg/mL],MIC (C. tropicalis IBA 171) [µg/mL],MIC [5] [µg/mL],"viability at 72 h, 12.5 mg/L [6] [%]","viability at 72 h, 25 mg/L [6] [%]","viability at 72 h, 50 mg/L [6] [%]",zone of inhibition at 300 µg/disc [7] [mm],MIC [8] [µg/mL],MIC (C. krusei ATCC 6258) [µg/mL],MIC (E. faecium ATCC 6057) [µg/mL],MIC (E. faecalis ATCC 29212) [µg/mL],MIC (S. aureus ATCC 6538P) [µg/mL],further results
"OB(O)c1cc(B(O)O)c(B(O)O)s1 [5c, thiophene-2,3,5-triboronic acid]",> 400,> 400,> 400,> 400,> 400,> 400,> 400,400,> 400,> 400,> 400,102 ± 3.4,97.9 ± 1.4,85.6 ± 0.7,21,> 400,> 400,> 400,200,400,"ceftazidime MIC reduction, up to (AmpC producers; agent 4 mg/L): ≤ 2 fold; ceftazidime MIC reduction, up to (AmpC producers; agent 8 mg/L): up to 4 fold; ceftazidime MIC reduction, up to (AmpC producers; agent 16 mg/L): ≤ 8 fold; MIC [9]: > 400 µg/mL; MIC [10]: > 400 µg/mL; zone of inhibition at 300 µg/disc [11]: 22 mm; Average FICI with ceftazidime [12]: 0.43; Interpretation of the average FICI with ceftazidime [12]: S (FICI ≤ 0.5, synergy); Interpretation of the lowest FICI with ceftazidime [12]: S (FICI ≤ 0.5, synergy); The lowest FICI with ceftazidime [12]: 0.27; zone of inhibition at 300 µg/disc [13]: 16 mm; zone of inhibition at 300 µg/disc [14]: 6 mm; Average FICI with ceftazidime [15]: 0.43; The lowest FICI with ceftazidime [15]: 0.27"
OB(O)c1ccc(Br)c(B(O)O)c1 [2f],> 400,> 400,> 400,> 400,> 400,> 400,200,> 400,> 400,> 400,> 400,103 ± 8.8,92.1 ± 0.9,76.2 ± 0.7,21,> 400,400,200,> 400,50,"zone of inhibition at 0.4 mg/disc (B. subtilis ATCC 6633): 22 mm; MBC (S. aureus ATCC 6538P): 400 µg/mL; zone of inhibition at 0.4 mg/disc (S. aureus ATCC 6538P; [20]): 14 mm; MIC [9]: 100 µg/mL; zone of inhibition at 0.4 mg/disc [9, 20]: 25 mm; MIC [10]: 200 µg/mL; zone of inhibition at 0.4 mg/disc [10, 20]: 13 mm; zone of inhibition at 300 µg/disc [11]: 19 mm; zone of inhibition at 300 µg/disc [13]: 15 mm; zone of inhibition at 300 µg/disc [14]: 6 mm"
"C[C@@H](O)[C@H]1C(=O)N2C(C(=O)O)=C(S[C@@H]3CN[C@H](C(=O)Nc4cccc(C(=O)O)c4)C3)[C@H](C)[C@H]12 [ERT, ertapenem, reference compound]",,,,,,,,,,,,,,,,,,,,,MIC [16]: 64 µg/mL; MIC [17]: 64 µg/mL; MIC [18]: 32 µg/mL; MIC range of ertapenem alone (KPC producers): 32 to 256 µg/mL; MIC [19]: 256 µg/mL

# — publication PMC10648349, “Aromatic Diboronic Acids as Effective KPC/AmpC Inhibitors” (Molecules, 2023)
